{"source": "ChEMBL document CHEMBL1201862", "about": "“PubChem BioAssay data set” (2004)", "assay_in_all_cases": "NCI tumour cell line growth inhibition, 48 h", "key": {"MDA-MB-231": {"system": "MDA-MB-231"}, "MDA-MB-435": {"system": "MDA-MB-435"}, "RXF 393": {"system": "RXF 393"}, "SNB-75": {"system": "SNB-75"}, "Hs-578T": {"system": "Hs-578T"}, "Malme-3M": {"system": "Malme-3M"}, "SF-295": {"system": "SF-295"}, "SF-268": {"system": "SF-268"}, "ACHN": {"system": "ACHN"}, "SF-539": {"system": "SF-539"}, "NCI/ADR-RES": {"system": "NCI/ADR-RES"}, "UO-31": {"system": "UO-31"}, "PC-3": {"system": "PC-3"}, "UACC-62": {"system": "UACC-62"}, "MOLT-4": {"system": "MOLT-4"}, "A498": {"system": "A498"}, "U-251": {"system": "U-251"}, "SR": {"system": "SR"}, "NCI-H23": {"system": "NCI-H23"}, "HOP-62": {"system": "HOP-62"}}, "note": "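Five compound concentrations were applied to cells in 96-well plates for 48 hours; endpoints were derived by simple linear interpolation of the resulting dose-response curve. Abbreviation: GI50, concentration required for 50% inhibition of growth.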 Active and inactive are the calls of the source. No stated cut-off is given here; in the data, active = GI50 up to about 1.1 µM and inactive = higher.", "data": [{"smiles": "O=C1OC(C2Cc3ccc4ccccc4c3C2=O)c2ccccc21", "note": "(stereo unspecified)", "values": [{"measurement": "GI50", "setting": "MDA-MB-231", "result": "> 100 µM (inactive)"}, {"measurement": "GI50", "setting": "MDA-MB-435", "result": "51.9 µM (inactive)"}, {"measurement": "GI50", "setting": "RXF 393", "result": "17.4 µM (inactive)"}, {"measurement": "GI50", "setting": "SNB-75", "result": "32.3 µM (inactive)"}, {"measurement": "GI50", "setting": "Hs-578T", "result": "31.6 µM (inactive)"}, {"measurement": "GI50", "setting": "Malme-3M", "result": "50.1 µM (inactive)"}, {"measurement": "GI50", "setting": "SF-295", "result": "32.4 µM (inactive)"}, {"measurement": "GI50", "setting": "SF-268", "result": "33.8 µM (inactive)"}, {"measurement": "GI50", "setting": "ACHN", "result": "53.1 µM (inactive)"}, {"measurement": "GI50", "setting": "SF-539", "result": "21.6 µM (inactive)"}, {"measurement": "GI50", "setting": "NCI/ADR-RES", "result": "49.2 µM (inactive)"}, {"measurement": "GI50", "setting": "UO-31", "result": "71.3 µM (inactive)"}, {"measurement": "GI50", "setting": "PC-3", "result": "48.8 µM (inactive)"}, {"measurement": "GI50", "setting": "UACC-62", "result": "33.7 µM (inactive)"}, {"measurement": "GI50", "setting": "MOLT-4", "result": "31.4 µM (inactive)"}, {"measurement": "GI50", "setting": "A498", "result": "> 100 µM (inactive)"}, {"measurement": "GI50", "setting": "U-251", "result": "32.7 µM (inactive)"}, {"measurement": "GI50", "setting": "SR", "result": "35.2 µM (inactive)"}]}, {"smiles": "COc1ccc2c(c1)c1c(C)c3cnccc3c(C)c1n2CCCN", "values": [{"measurement": "GI50", "setting": "MDA-MB-231", "result": "0.145 µM (active)"}, {"measurement": "GI50", "setting": "MDA-MB-435", "result": "0.0502 µM (active)"}, {"measurement": "GI50", "setting": "RXF 393", "result": "0.05 µM (active)"}, {"measurement": "GI50", "setting": "SNB-75", "result": "0.378 µM (active)"}, {"measurement": "GI50", "setting": "NCI-H23", "result": "0.216 µM (active)"}, {"measurement": "GI50", "setting": "Hs-578T", "result": "0.277 µM (active)"}, {"measurement": "GI50", "setting": "Malme-3M", "result": "0.681 µM (active)"}, {"measurement": "GI50", "setting": "SF-295", "result": "0.257 µM (active)"}, {"measurement": "GI50", "setting": "ACHN", "result": "0.124 µM (active)"}, {"measurement": "GI50", "setting": "SF-539", "result": "0.405 µM (active)"}, {"measurement": "GI50", "setting": "NCI/ADR-RES", "result": "0.273 µM (active)"}, {"measurement": "GI50", "setting": "UO-31", "result": "0.524 µM (active)"}, {"measurement": "GI50", "setting": "PC-3", "result": "0.0715 µM (active)"}, {"measurement": "GI50", "setting": "HOP-62", "result": "0.444 µM (active)"}, {"measurement": "GI50", "setting": "UACC-62", "result": "0.41 µM (active)"}, {"measurement": "GI50", "setting": "A498", "result": "0.451 µM (active)"}, {"measurement": "GI50", "setting": "SR", "result": "< 0.01 µM (active)"}]}, {"smiles": "O=C(OCc1c(-c2ccccc2)nn(-c2ccccc2)c1COC(=O)Oc1ccccc1)Oc1ccccc1", "values": [{"measurement": "GI50", "setting": "MDA-MB-231", "result": "> 100 µM (inactive)"}, {"measurement": "GI50", "setting": "MDA-MB-435", "result": "> 100 µM (inactive)"}, {"measurement": "GI50", "setting": "RXF 393", "result": "> 100 µM (inactive)"}, {"measurement": "GI50", "setting": "SNB-75", "result": "> 100 µM (inactive)"}, {"measurement": "GI50", "setting": "NCI-H23", "result": "> 100 µM (inactive)"}, {"measurement": "GI50", "setting": "Hs-578T", "result": "> 100 µM (inactive)"}, {"measurement": "GI50", "setting": "Malme-3M", "result": "> 100 µM (inactive)"}, {"measurement": "GI50", "setting": "SF-295", "result": "> 100 µM (inactive)"}, {"measurement": "GI50", "setting": "SF-268", "result": "> 100 µM (inactive)"}, {"measurement": "GI50", "setting": "ACHN", "result": "> 100 µM (inactive)"}, {"measurement": "GI50", "setting": "SF-539", "result": "> 100 µM (inactive)"}, {"measurement": "GI50", "setting": "NCI/ADR-RES", "result": "> 100 µM (inactive)"}, {"measurement": "GI50", "setting": "PC-3", "result": "> 100 µM (inactive)"}, {"measurement": "GI50", "setting": "HOP-62", "result": "> 100 µM (inactive)"}, {"measurement": "GI50", "setting": "UACC-62", "result": "> 100 µM (inactive)"}, {"measurement": "GI50", "setting": "MOLT-4", "result": "> 100 µM (inactive)"}, {"measurement": "GI50", "setting": "A498", "result": "> 100 µM (inactive)"}, {"measurement": "GI50", "setting": "U-251", "result": "> 100 µM (inactive)"}, {"measurement": "GI50", "setting": "SR", "result": "> 100 µM (inactive)"}]}, {"smiles": "S=C1C(CCCOCc2ccccc2)C2CCCC23CC2(CCN13)OCCS2", "note": "(stereo unspecified)", "values": [{"measurement": "GI50", "setting": "MDA-MB-231", "result": "> 10 µM (inactive)"}, {"measurement": "GI50", "setting": "MDA-MB-435", "result": "> 10 µM (inactive)"}, {"measurement": "GI50", "setting": "RXF 393", "result": "> 10 µM (inactive)"}, {"measurement": "GI50", "setting": "SNB-75", "result": "> 10 µM (inactive)"}, {"measurement": "GI50", "setting": "NCI-H23", "result": "> 10 µM (inactive)"}, {"measurement": "GI50", "setting": "Hs-578T", "result": "> 10 µM (inactive)"}, {"measurement": "GI50", "setting": "Malme-3M", "result": "> 10 µM (inactive)"}, {"measurement": "GI50", "setting": "SF-295", "result": "> 10 µM (inactive)"}, {"measurement": "GI50", "setting": "SF-268", "result": "> 10 µM (inactive)"}, {"measurement": "GI50", "setting": "ACHN", "result": "> 10 µM (inactive)"}, {"measurement": "GI50", "setting": "SF-539", "result": "> 10 µM (inactive)"}, {"measurement": "GI50", "setting": "NCI/ADR-RES", "result": "> 10 µM (inactive)"}, {"measurement": "GI50", "setting": "UO-31", "result": "> 10 µM (inactive)"}, {"measurement": "GI50", "setting": "PC-3", "result": "> 10 µM (inactive)"}, {"measurement": "GI50", "setting": "HOP-62", "result": "> 10 µM (inactive)"}, {"measurement": "GI50", "setting": "MOLT-4", "result": "> 10 µM (inactive)"}, {"measurement": "GI50", "setting": "A498", "result": "> 10 µM (inactive)"}, {"measurement": "GI50", "setting": "U-251", "result": "> 10 µM (inactive)"}, {"measurement": "GI50", "setting": "SR", "result": "> 10 µM (inactive)"}]}, {"smiles": "N#CC(/N=N/c1ccccc1)c1nc2ccccc2o1", "note": "(stereo unspecified)", "values": [{"measurement": "GI50", "setting": "MDA-MB-231", "result": "20.8 µM (inactive)"}, {"measurement": "GI50", "setting": "MDA-MB-435", "result": "> 100 µM (inactive)"}, {"measurement": "GI50", "setting": "RXF 393", "result": "22.6 µM (inactive)"}, {"measurement": "GI50", "setting": "NCI-H23", "result": "18.6 µM (inactive)"}, {"measurement": "GI50", "setting": "Hs-578T", "result": "22.3 µM (inactive)"}, {"measurement": "GI50", "setting": "Malme-3M", "result": "55.8 µM (inactive)"}, {"measurement": "GI50", "setting": "SF-295", "result": "17.4 µM (inactive)"}, {"measurement": "GI50", "setting": "SF-268", "result": "22.2 µM (inactive)"}, {"measurement": "GI50", "setting": "ACHN", "result": "19.3 µM (inactive)"}, {"measurement": "GI50", "setting": "SF-539", "result": "14.7 µM (inactive)"}, {"measurement": "GI50", "setting": "NCI/ADR-RES", "result": "23.8 µM (inactive)"}, {"measurement": "GI50", "setting": "UO-31", "result": "56.6 µM (inactive)"}, {"measurement": "GI50", "setting": "PC-3", "result": "29.5 µM (inactive)"}, {"measurement": "GI50", "setting": "HOP-62", "result": "20.3 µM (inactive)"}, {"measurement": "GI50", "setting": "UACC-62", "result": "37.7 µM (inactive)"}, {"measurement": "GI50", "setting": "MOLT-4", "result": "49.4 µM (inactive)"}, {"measurement": "GI50", "setting": "A498", "result": "76.9 µM (inactive)"}, {"measurement": "GI50", "setting": "U-251", "result": "22.4 µM (inactive)"}, {"measurement": "GI50", "setting": "SR", "result": "36.8 µM (inactive)"}]}, {"smiles": "Cc1sc2nc3n(c(=O)c2c1C)N=CN(c1ccc(F)cc1)C3", "values": [{"measurement": "GI50", "setting": "MDA-MB-231", "result": "59 µM (inactive)"}, {"measurement": "GI50", "setting": "MDA-MB-435", "result": "> 100 µM (inactive)"}, {"measurement": "GI50", "setting": "RXF 393", "result": "> 100 µM (inactive)"}, {"measurement": "GI50", "setting": "SNB-75", "result": "42.4 µM (inactive)"}, {"measurement": "GI50", "setting": "NCI-H23", "result": "> 100 µM (inactive)"}, {"measurement": "GI50", "setting": "Hs-578T", "result": "22.4 µM (inactive)"}, {"measurement": "GI50", "setting": "Malme-3M", "result": "25 µM (inactive)"}, {"measurement": "GI50", "setting": "SF-295", "result": "72.9 µM (inactive)"}, {"measurement": "GI50", "setting": "SF-268", "result": "81.7 µM (inactive)"}, {"measurement": "GI50", "setting": "ACHN", "result": "29 µM (inactive)"}, {"measurement": "GI50", "setting": "NCI/ADR-RES", "result": "> 100 µM (inactive)"}, {"measurement": "GI50", "setting": "UO-31", "result": "> 100 µM (inactive)"}, {"measurement": "GI50", "setting": "PC-3", "result": "> 100 µM (inactive)"}, {"measurement": "GI50", "setting": "HOP-62", "result": "23.8 µM (inactive)"}, {"measurement": "GI50", "setting": "UACC-62", "result": "> 100 µM (inactive)"}, {"measurement": "GI50", "setting": "MOLT-4", "result": "> 100 µM (inactive)"}, {"measurement": "GI50", "setting": "A498", "result": "26.9 µM (inactive)"}, {"measurement": "GI50", "setting": "U-251", "result": "50.1 µM (inactive)"}, {"measurement": "GI50", "setting": "SR", "result": "> 100 µM (inactive)"}]}]}
